Measured values: patent publication US20250002854A1, “METHODS OF GENERATING POPULATIONS OF TUMOUR-INFILTRATING T CELLS” (LYTIX BIOPHARMA AS, priority 2016, published 2025)
Entries after “also recorded” stand apart in the source; their conditions may differ. Square brackets hold non-standard residues; d marks the D form. Ends that are not written are not given here. Dip = N[C@H](C(=O)O)C(c1ccccc1)c1ccccc1

What was measured:
B16F1 cells = assay: Release of ATP (luciferin-luciferase); type: cell-based, murine; conditions: 54 μM, up to 120 min
Experimental: Serum-free RPMI 1640 treated cells functioned as a negative and blank control, respectively. Extracellular levels of ATP were measured at the end of the experiment using a luciferin-based ENLITEN ATP Assay kit (Promega, Madison, WI, USA), in which ATP-driven chemoluminescence was recorded on a Luminescence Microplate Reader (Labsystems Luminoskan®, Finland), and expressed as relative light units (RLU).

murine B16 melanomas = assay: Murine melanoma model, intratumoural injections of LTX-401; type: in vivo
A375 cells [1] = assay: Confocal microscopy, internalization of fluorescence-labeled peptide; type: cell-based, human
Experimental: The A375 cell line A375 (ECACC, 88113005) is a human malignant melanoma derived from patient material, and was purchased from Public Health England (PHE Culture Collections, Porton Down, Salisbury, UK). Cells were maintained as monolayer cultures in high glucose […] DMEM supplemented with 10% FBS and 1% L-glutamine, but not as antibiotics (complete media). The cell line was grown in a humidified 5% CO2 atmosphere at 37° C., and was regularly tested for the presence of mycoplasma with MycoAlert (Lonza).
Fixed cells, fluorescence-labeled peptide—Subconfluential A375 cells were seeded at 8,000 cells/well as above, and transfected on the second day using the Lipofectamine LTX with Plus transfection reagents (Invitrogen) following the manufacturer's protocol. The mitochondria were labeled using the pDsRed2-Mito, and the nucleus was labeled using the GFP-Histon2B plasmid (Imaging Platform, University of Tromsø). A day after transfection, cells were washed twice with serum-free RPMI, and treated at different concentration and incubation periods with LTX-315 Pacific Blue or LTX-328 Pacific Blue. […] Control cells were treated with unlabeled LTX-315 and also with serum-free RPMI only. After incubation, cells were fixed with 4% paraformaldehyde in PBS, and the wells were covered with Prolong Gold antifade (Invitrogen). Cells were further analyzed by use of a Leica TCS SP5 confocal microscope, with a […] objective. Pacific Blue, GFP and Ds Red were excited using UV, with 488 and 561 lasers, and fluorescence channels were sequentially detected using the following band passes: UV: 420-480 nm (with attenuation), 488: 501-550 nm and 561: 576-676 nm.

[2] = tested on: tumour tissue sections from patients; assay: Clinical histology, CD3/CD8 immunostaining of patient tumours; type: in vivo, human
Experimental: Formalin-fixed and paraffin-embedded tumour tissue sections from patients were deparaffinized in xylene and graded alcohols, hydrated and washed in PBS. After antigen retrieval in sodium citrate buffer (pH 6) in a microwave oven, the endogenous peroxidase was blocked by 0.3% H2O2 for 15 min. Sections were incubated overnight at 4° C. with primary antibody; rabbit polyclonal anti-CD3 (clone A0452 Dako) or mouse monoclonal anti-CD8 (clone OX8, ab33786, Abcam). As a secondary antibody, the anti-rabbit-horseradish peroxidase (HRP) SuperPicTure Polymer detection kit (Invitrogen) or Envision system HRP-anti-mouse (Dako) were used. A matched isotype control was used as a control for nonspecific background staining

[3] = tested on: rat transformed mesenchymal stem cell-derived sarcoma (rTMSC); assay: FACS analysis of TILs in rat rTMSC sarcoma model; type: in vivo; conditions: for percentage of T cells / CD8+ cells within the CD3+ T cell population: mean±SD
Experimental: Pre-cultured rat transformed mesenchymal stem cell-derived sarcoma model cells (rTMSCs) were harvested in serum free RPMI-1640 and 200,000 rTMSCs were subcutaneously inoculated in the right flank into PVG rats on day ÷2 and 20,000 rTMSCs in the opposite flank on day 0. Established tumours (25 mm^2 mean tumour size) were injected intralesionally with LTX-315 (dissolved in sterile H2O with 0.9% NaC ) (n=8) or with vehicle (sterile H2O with 0.9% NaCl) (n=6). Treatment doses of LTX-315, 50 μl at […] (1 mg), were given using a 1 ml syringe (Myjector U-100, Terumo) needle 0.5×16 mm (Fine-Ject; Henke-Sass, Wolf GmbH. Injections were provided daily for three subsequent days. Tumour size was measured three times a week using a caliper and expressed as the area of an ellipse [(maximum dimension/2)×(minimum dimension/2)]. Animals were terminated when the tumor exceeded 400 mm^2.
Single-cell suspensions were prepared from fresh tumour tissue at different time points during the week after LTX-315 treatment. Tumours were gently minced with a razor blade and cut into small pieces (4 mm^2). Tumour tissue was incubated with Liberase TM (Thermolysin Medium; Roche Diagnostics) at a concentration of 0.18 Wünsch units/ml in 10 ml MEM media (Sigma-Aldrich) at 37° C. for 60 min with gentle agitation. The enzymatic digestion was terminated by addition of 2 ml 4° C. FCS (Invitrogen, Thermo Fischer). The cell suspension was filtered through a […] mesh (Cell Strainer; BD), washed in PBS and cells were then directly used for flow cytometric staining.
The mouse monoclonal antibodies against CD4 ([…]) and CD8 ([…]) were isolated from culture supernatants from hybridomas and were kind gifts from the MRC Cellular Immunology Unit, Oxford, UK. They were conjugated at IMB according to standard protocols. Fluorochrome-conjugated mAbs against CD3 (G4.18) was obtained from BD Biosciences, including PerCP Streptavidin. A four-color panel consisting of reagents in FITC/AI488, PE, PerCP Streptavidin and AI647 was applied and analyzed on a FACS Calibur (BD) equipped with the CellQuest software (BD). Dot plot and histogram gates were set using isotype control antibodies.

A375 cells [4] = assay: TEM electron microscopy of A375 cells; type: cell-based, human
Experimental: A375 cells were seeded at 1×10^5 cells per well in 6-well plates and allowed to grow for three days to optimize membrane structures in the culture, and the media was changed on the second day. Cells were washed twice in serum-free RPMI before being treated with LTX-315 dissolved in serum-free RPMI at 5, 10 and 25 μg/ml, with serum-free RPMI as a negative control. Cells were then washed with PBS twice before fixation for 24 hours in 4° C. with 4% formaldehyde and 1% gluteralaldehyde in a Hepes buffer at pH 7.8. Dehydration and post-fixation protocols included incubation in a 5% buffered tannic acid and incubation in a 1% osmium-reduced ferrocyanide. Ultrathin sections were prepared, and uranyl acetate (5%) and Reynolds's lead citrate were used for staining and contrasting. Samples were examined on a JEOL JEM-1010 transmission electron microscope, and images were taken with an Olympus Morada side-mounted TEM CCD camera (Olympus soft imaging solutions, GmbH, Germany).

## Cl.Cl.NCCNC(=O)C(CN)(CCCc1ccccc1)CCCc1ccccc1 [LTX-401]
B16F1 cells
  extracellular concentration of ATP: quickly rose 60 min after initiating treatment
Murine B16 melanomas
  tumour regression / remission: complete and long-lasting remission; also recorded: complete regression

## K-K-W-W-K-K-W-Dip-K-NH2 (KKWWKKW[Dip]K-NH2) [LTX-315]
A375 cells [1]; 1.5 μM, 30 minutes
  accumulation of labelled peptide around the mitochondria: showed an accumulation around the mitochondria
  detection of labelled peptide in the cell nucleus: not detected in the cell nucleus
A375 cells [1]; 3 μM, 60 min
  internalization of peptide: detected in the cytoplasm
A375 cells [1]; A375 cells, 3 μM and 1.5 μM
  internalization of Pacific Blue-labelled peptide: rapidly penetrated the plasma membrane
[2]; breast carcinoma patient
  infiltration of CD3+ and CD8+ cells: infiltration of CD3^+ positive cells
[2]; desmoid tumour patient
  infiltration of CD3+ and CD8+ cells: infiltration of CD3^+ positive cells
[2]; malignant melanoma patient
  infiltration of CD8+ cells: infiltration of CD8^+ positive cells
[2]; metastatic melanoma patient
  infiltration of CD3+ and CD8+ cells: infiltration of CD3^+ positive cells
[2]; myo-epithelioma patient
  infiltration of CD3+ and CD8+ cells: infiltration of CD3^+ positive cells
[3]; primary treated lesion
  percentage of T cells: 28.35±11.78%
[3]; primary tumor of treated rats
  CD8+ cells within the CD3+ T cell population: 62.77±13.3
[3]; secondary tumor of treated rats
  CD8+ cells within the CD3+ T cell population: 45.8±5.4
[3]; secondary tumor tissue
  increase of percentage of T cells compared to untreated rats: 3 fold
  percentage of T cells: 39.83±17.4%
A375 cells [4]; 3.5 μM
  cells with vacuolization: approximately 20%
A375 cells [4]; 3.5 μM, 60 minutes
  number of necrotic cells: less than 5%
  ultrastructural changes: showed vacuolization, as well as some altering of the mitochondrial morphology
A375 cells [4]; 17 μM, 60 min
  cells displaying vacuolization: 4%
  cells with necrotic morphology and loss of plasma membrane integrity: approximately 40%
A375 cells [4]; TEM, A375 cells
  mode of cell killing: kills the tumor cells with a lytic mode of action
